# Measured values from ChEMBL document CHEMBL5500390, “Overcoming Secondary Mutations of Type II Kinase Inhibitors” (J Med Chem, 2024).
# Assays:
# [1] = Inhibition of cell growth in mouse 32D cells transfected with FLT3 ITD mutant incubated for 2 days; assay type: functional; settings: 48 h, time 2 day
# [2] = Inhibition of cell growth in mouse 32D cells transfected with FLT3 ITD F691L mutant incubated for 2 days; assay type: functional; settings: 48 h, time 2 day
smiles,measurement,setting,value
CCCNc1nc(Nc2ccc(C#N)cc2)ncc1C#CCCCNC(=O)[C@H](C)N(C)C(=O)/C=C/CN(C)C [FF-10101],GI50,[1],1.9 nM
same,GI50,[2],10 nM
